Assay [1] relates to Snrpn promoter (IG-DMR GFP/Pat reporter), skin dermal cells. As to the kind of experiment: In vivo activation of the IG-DMR GFP/Pat reporter in mouse skin (lentiviral delivery). The source says: FIGS. 7A-7H depict targeted ex vivo and in vivo DNA methylation editing by dCas9-Tet1 to activate a silenced GFP reporter. FIG. 7A provides a schematic diagram illustrating the experimental procedure for the ex vivo activation of a silenced GFP reporter in mouse fibroblast cells. Mouse tail fibroblast cells were derived from a genetically modified mouse line carrying a paternal IG-DMR-Snrpn-GFP allele (IG-DMRGFP/Pat) in the Dlk1-Dio3 locus. The IG-DMR-Snrpn promoter on the paternal allele is hypermethylated so that the GFP reporter is constitutively silenced. The cultured fibroblast cells were infected with lentiviral vectors expressing dCas9-Tet1 and gRNAs to demethylate the Snrpn promoter and activate the GFP reporter. Cells are subject to imaging and FACS analysis. […] Stained in red for Cherry, green for GFP and DAPI for nuclei. Scale bar: 100 um. […] Brains were sliced and analyzed by immunohistochemical approaches. […] FIGS. 7G-7H provide quantification of the percentage of IG-DMR^GFP/Pat cells with GFP activation in Cherry (gRNAs) positive cells in the in vivo lentiviral delivery experiment in the brain (FIG. 7G) and in the skin epidemis (FIG. 7H). […]
FIGS. 14A-14F depict activation of IG-DMR^GFP/Pat reporter in mouse skin cells by dCas9-Tet1 mediated demethylation. […] Note red auto-fluorescence on the left edges of the epidermis. […]

Assay [2] concerns Snrpn promoter (IG-DMR GFP/Pat reporter), neurons. As to the kind of experiment: In vivo activation of the IG-DMR GFP/Pat reporter in mouse brain (stereotaxic lentiviral delivery). An excerpt:
FIGS. 7A-7H depict targeted ex vivo and in vivo DNA methylation editing by dCas9-Tet1 to activate a silenced GFP reporter. FIG. 7A provides a schematic diagram illustrating the experimental procedure for the ex vivo activation of a silenced GFP reporter in mouse fibroblast cells. Mouse tail fibroblast cells were derived from a genetically modified mouse line carrying a paternal IG-DMR-Snrpn-GFP allele (IG-DMRGFP/Pat) in the Dlk1-Dio3 locus. The IG-DMR-Snrpn promoter on the paternal allele is hypermethylated so that the GFP reporter is constitutively silenced. […] Brains were sliced and analyzed by immunohistochemical approaches. […] FIGS. 7G-7H provide quantification of the percentage of IG-DMR^GFP/Pat cells with GFP activation in Cherry (gRNAs) positive cells in the in vivo lentiviral delivery experiment in the brain (FIG. 7G) and in the skin epidemis (FIG. 7H). […]
To investigate whether the DNA methylation status can be modified in vivo, we infected 3 epidermal sites on the ventral side of an IG-DMR^GFP/Pat transgenic mouse with the dCas9-Tet1 and Snrpn gRNAs (FIG. 14D). […] In addition we infected the brain of an IG-DMR^GFP/Pat transgenic mouse with lentiviral vectors using a stereotaxic setup and analyzed the effect on targeted DNA methylation in brain slices by confocal microscopy. […]

As for “dC-dT: dCas9 fused to an inactive mutant form of Tet1 (H1672Y, D1674A), SEQ ID NO: 160”, the “GFP reporter activation in infected (Cherry positive) skin dermal cells in vivo” value in assay [1] (with Snrpn gRNAs, lentiviral injection into dermal sites, 3 days) was “did not activate GFP reporter expression”. In addition, the “GFP reporter activation efficiency in Cherry positive cells (neurons) of the brain in vivo” value in assay [2] (with Snrpn gRNAs, stereotaxic lentiviral injection, 3 days) is “did not activate GFP reporter expression”.

On to “dCas9-Tet1: catalytically inactive Cas9 (dCas9) fused through NLS to the Tet1 catalytic domain, SEQ ID NO: 159; lentivirally expressed with gRNAs”, for which, in assay [1] (with a scrambled gRNA), the “GFP reporter activation in infected skin dermal cells in vivo” value was “did not activate GFP reporter expression”. In assay [2] (with a scrambled gRNA), the “GFP reporter activation in Cherry positive cells of the brain in vivo” value is reported as “did not activate GFP reporter expression”.
